The assay deals with methicillin-resistant S. aureus (FPR3757). Put plainly: MIC against clinical MRSA strain FPR3757 in Mueller-Hinton broth (CLSI). The class given is cell-based, Staphylococcus aureus. As to conditions: for MIC: MRSA clinical strain FPR3757, Mueller-Hinton broth, CLSI guidelines, complete inhibition of observable growth. The source says: The first set of compounds evaluated were analogs at the C-7 and C-8 positions of the initial quinolone hit DNAC-2 since the other HTS hits identified (data not shown) were substituted at these positions (Table 1). Applicants first explored modification at the C-7 position with a small series of electron-donating and withdrawing substituents. […] However, analogs containing electron donating groups at C-7 including ethyl 7, benzyloxy 8, methoxy 9 and methylthio 10 are weakly active displaying MICs of 320-640 μg/mL indicating electron-donating substituents at C-7 are poorly tolerated. […] The C-8 position was evaluated with trifluoromethyl 4 and trifluoromethoxy 5 containing the optimal C-7 substituents. Both 4 and 5 are equipotent to the corresponding C-7 analogs 2 and 3 indicating some flexibility of the quinolone scaffold.

Setting [1] is: Staphylococcus aureus, MRSA, read-out: MIC.

The structures appear in SMILES notation. Converted amounts (≈) assume the structure as drawn. Where two headings read alike, the source gives them in different places.

Usually MIC stands for the least concentration at which growth counts as inhibited. Compound `FC(F)(F)c1ccc2c(Nc3ccc4c(c3)OCO4)cc(C(F)(F)F)nc2c1` [Compound 28] yielded a minimal inhibitory concentration (MIC) of over 4 µg/mL. Regarding `FC(F)(F)c1cccc(Nc2cc(C(F)(F)F)nc3cc(C(F)(F)F)ccc23)c1` [Compound 26], the “fold increase in potency (MIC) relative to the comparator” value (MRSA FPR3757 MIC ratio) is recorded as 16 fold. Besides, the MIC under setting [1] was 0.25 µg/mL (≈ 0.589 µM). As to `O=c1cc(C(F)(F)F)[nH]c2cc(Cl)ccc12` [Compound 6], the MIC under setting [1] stood at 20 µg/mL (≈ 80.8 µM).

Compound `O=c1cc(C(F)(F)F)[nH]c2cc(Nc3ccc(C(F)(F)F)cn3)cc(C(F)(F)F)c12` [Compound 122] gave a minimal inhibitory concentration (MIC) of 4 µg/mL (≈ 9.07 µM). `FC(F)(F)Oc1cccc(Nc2cc(C(F)(F)F)nc3c(OC(F)(F)F)cccc23)c1` [Compound 43] yielded a minimum inhibitory concentration (MIC) of 1 µg/mL (≈ 2.19 µM). Take `FC(F)(F)c1ccc2c(NC[C@@H]3CCCN3)cc(C(F)(F)F)nc2c1` [Compound 60]: the minimal inhibitory concentration (MIC) is over 32 µg/mL. Further, the MIC under setting [1] is over 32 µg/mL.

`O=c1cc(C(F)(F)F)[nH]c2cc(Nc3ccc(Cl)c(Cl)c3)cc(C(F)(F)F)c12` [Compound 119]: under setting [1], the MIC came out at 1 µg/mL (≈ 2.27 µM). Compound `FC(F)(F)c1ccc2c(N3CCc4cccnc43)cc(C(F)(F)F)nc2c1` [Compound 63] came in with a minimum inhibitory concentration (MIC) of over 32 µg/mL. In addition, the MIC under setting [1] was over 32 µg/mL. Turning to `FC(F)(F)c1ccc2c(Nc3cccc(Cl)c3)cc(C(F)(F)F)nc2c1` [Compound 16], the MIC worked out at 0.25 µg/mL (≈ 0.64 µM). Besides, the MIC under setting [1] was 0.125 to 0.25 µg/mL (≈ 0.32 to 0.64 µM). As to `FC(F)(F)c1ccc2c(Nc3cccc4[nH]ncc34)cc(C(F)(F)F)nc2c1` [Compound 61], the MIC is over 32 µg/mL. The minimal inhibitory concentration (MIC) under setting [1] was over 32 µg/mL.

The compound `CN(C)S(=O)(=O)c1ccc(Nc2cc(C(F)(F)F)cc3[nH]c(C(F)(F)F)cc(=O)c23)nc1` [Compound 115] showed a minimal inhibitory concentration (MIC) of 2 µg/mL (≈ 4.16 µM). Regarding `FC(F)(F)c1cccc(Nc2cc(C(F)(F)F)nc3c(C(F)(F)F)cccc23)c1` [Compound 46], the minimal inhibitory concentration (MIC) under setting [1] is 1 µg/mL (≈ 2.36 µM). As for `FC(F)(F)Oc1cccc(Nc2cc(C(F)(F)F)nc3cc(OC(F)(F)F)ccc23)c1` [Compound 33], the minimal inhibitory concentration (MIC) is 1 µg/mL (≈ 2.19 µM). For the same compound, the MIC under setting [1] lay in the range of 0.5 to 1 µg/mL (≈ 1.1 to 2.19 µM). On to `FC(F)(F)c1ccc2c(Nc3cccc(N4CCOCC4)c3)cc(C(F)(F)F)nc2c1` [Compound 29], for which, under setting [1], the MIC is over 16 µg/mL. Still for that read-out and setting: then `O=c1cc(C(F)(F)F)[nH]c2c(OC(F)(F)F)cccc12` [Compound 5], with 5 µg/mL (≈ 16.8 µM). `FC(F)(F)c1ccc2c(N3CCOCC3)cc(C(F)(F)F)nc2c1` [Compound 59] gave a minimum inhibitory concentration (MIC) of over 32 µg/mL. In addition, the MIC under setting [1] was over 32 µg/mL.

Take `COc1cccc(Nc2cc(C(F)(F)F)nc3cc(C(F)(F)F)ccc23)c1` [Compound 25]: the MIC under setting [1] was over 64 µg/mL.

Turning to `O[C@H]1C[C@H]2CC[C@@H](C1)C2Nc1cc(C(F)(F)F)nc2cc(C(F)(F)F)ccc12` (some centres unmarked) [Compound 65], the MIC is over 32 µg/mL. The MIC under setting [1] was over 32 µg/mL. For the compound `COC(=O)c1cc(Nc2cc(C(F)(F)F)nc3cc(C(F)(F)F)ccc23)ccn1` [Compound 54], the minimal inhibitory concentration (MIC) is over 32 µg/mL. The MIC under setting [1] is over 32 µg/mL. In the same order, the values of `O=c1cc(C(F)(F)F)[nH]c2cc(C(F)(F)F)cc(Nc3cccc4[nH]ncc34)c12` [Compound 116] are 2 µg/mL (≈ 4.85 µM) and 1 to 2 µg/mL (≈ 2.43 to 4.85 µM). For `N#Cc1cccc(Nc2cc(C(F)(F)F)nc3cc(C(F)(F)F)ccc23)c1` [Compound 14], the minimal inhibitory concentration (MIC) was over 32 µg/mL. As for `COc1ccc2c(=O)cc(C(F)(F)F)[nH]c2c1` [Compound 9], the MIC turned out to be 640 µg/mL (≈ 2630 µM). Besides, the “fold loss of potency (MIC) relative to the comparator” value (MRSA FPR3757 MIC ratio) is reported as 80-160 fold. Under setting [1], the MIC is 320 to 640 µg/mL (≈ 1320 to 2630 µM). With `FC(F)(F)Oc1cccc(Nc2cc(C(F)(F)F)nc3cc(C(F)(F)F)ccc23)c1` [Compound 27], the minimum inhibitory concentration (MIC) under setting [1] came to 8 µg/mL (≈ 18.2 µM).

`Fc1cccc(Nc2cc(C(F)(F)F)nc3cc(C(F)(F)F)ccc23)c1` [Compound 18]: the “fold loss of potency (MIC) relative to the comparator” value (MRSA FPR3757 MIC ratio) was 16-64 fold. On to `O=c1cc(C(F)(F)F)[nH]c2cc(C(F)(F)F)ccc12` [Compound 2], for which the minimal inhibitory concentration (MIC) was found to be 5 µg/mL (≈ 17.8 µM). Also, the MIC under setting [1] was 4 to 8 µg/mL (≈ 14.2 to 28.5 µM).

These data come from patent US20220274927A1, “MEMBRANE-ACTIVE ANTI-BACTERIAL COMPOUNDS AND USES THEREOF” (Trustees of Dartmouth College, priority 2019, published 2022).
